US10274488B2, “Glycan arrays on PTFE-like aluminum coated glass slides and related methods” (Academia Sinica, priority 2008, dated 2019)

Legend:
[1] = test system: cellulase from A. niger; assay: Enzymatic hydrolysis on the PTFE-like ACG slide with cellulase from A. niger, MS-TOF readout; type: biochemical, Aspergillus niger; conditions: reaction on the ACG slide
Protocol: (§1) Enzymatic hydrolysis of the immobilized poly-fluorinated cellobiose 8 (see FIG. 14) was first conducted in situ on the phosphonic acid slide surface. Three commercially available cellulases, Aspergillus niger (A. niger), Trichoderma reesei (T. reesei), and Trichoderma viride (T. viride) were prepared separately at 5 U/mL in a sodium acetate (25 mM) buffer solution (pH 5) and loaded onto the functionalized slide which has been divided into 16 wells using Fast Frame reaction chambers. For comparison, an aliquot of enzyme solution (100 μL) was added to the solution of fluorinated cellobiose (100 μL of 0.5 mM) in eppendorfs to carry out the enzymatic hydrolysis reactions in solution. After the reaction, it was transferred to the empty wells of the same slide. Each well was rinsed separately three times with de-ionized water and the slide was dried again under high vacuum before subjecting to MS-TOF analysis.
(§2) Under MS-TOF analysis, the clean background baseline allowed calculation of the percentage of hydrolyzed components for each sample. As shown in the MS-TOF results in FIG. 20, percentages of hydrolyzed products are calculated from the peak intensities of each spectrum. According to implementations of experimental data shown in FIG. 20, MS-TOF data of enzymatic hydrolysis of poly-fluorinated cellobiose in solution in FIG. 20A and immobilized on PTFE-like ACG slide in FIG. 20B. The control are the same experimental conditions run without enzymes in (a); (b), (c), and (d) are experimental conditions with the cellulase proteins from A. niger (b), T. reesei (c), and T. viride (d).
(§3) Cellulase was prepared (5 U/mL in 25 mM pH 5.05 NaOAc buffer solution). Substrate was also dissolved in NaOAc buffer solution (25 mM, pH 5.05) to give 0.5 mM substrate solution. Add 50 μL cellulase solution to 50 μL substrate solution onto the glass slide which was loaded in FAST® Frame multi-slide plate to have a 2.5 U/mL cellulase solution with 0.25 mM substrate. The well of the plate was sealed and the whole assembly was incubated in 37° C. for 18 hours. Put the slide in dry box to remove the water, and then use high vacuum to remove trace water. 100 uL water was used to rinse each well of the FAST® Frame multi-slide plate to solve and remove the salt of the buffer solution. Remove any residual water on the plate by high vacuum and then analyzed the slide by MALDI-TOF Ultra-Flex II.

[2] = test system: cellulase from T. reesei; assay: Enzymatic hydrolysis on the PTFE-like ACG slide with cellulase from T. reesei, MS-TOF readout; type: biochemical, Trichoderma reesei; conditions: reaction on the ACG slide, pH 5
Protocol: as §1, §2, §3

[3] = test system: cellulase from T. viride; assay: Enzymatic hydrolysis in solution with cellulase from T. viride, MS-TOF readout; type: biochemical, Trichoderma viride; conditions: reaction in solution, pH 5
Protocol: as §1, §2
Cellulase was prepared (5 U/mL in 25 mM pH 5.05 NaOAc buffer solution). Substrate was also dissolved in NaOAc buffer solution (25 mM, pH 5.05) to give 0.5 mM substrate solution. Add 100 uL cellulase solution to 100 uL substrate solution in eppendorf to have a 2.5 U/mL cellulase solution with 0.25 mM substrate. This solution was incubated in 37° C. for 18 hours. Add 100 μL incubated solution onto the slide loaded in FAST® Frame. Put the slide in dry box to remove the water, and then use high vacuum to remove trace water. 100 μL water was used to rinse each well of the FAST® Frame multi-slide plate to solve and remove the salt of the buffer solution. Remove any residual water on the plate by high vacuum and then analyzed the slide by MALDI-TOF Ultra-Flex II.

[4] = test system: cellulase from T. viride; assay: Enzymatic hydrolysis on the PTFE-like ACG slide with cellulase from T. viride, MS-TOF readout; type: biochemical, Trichoderma viride; conditions: reaction on the ACG slide, pH 5
Protocol: as §1, §2, §3

Biose (un-hydrolyzed cellobiose), percentage of hydrolyzed pattern ([1]; pH 5): 1%
F-tail, percentage of hydrolyzed pattern ([1]; pH 5): 0/0%
Glucose, percentage of hydrolyzed pattern ([1]; pH 5): 0%
Triose, percentage of hydrolyzed pattern ([1]; pH 5): 0%
Biose (un-hydrolyzed cellobiose), percentage of hydrolyzed pattern ([1]; pH 5, listed as cellobiose): 100%
Biose (un-hydrolyzed cellobiose), percentage of hydrolyzed pattern [2]: 69%
F-tail, percentage of hydrolyzed pattern [2]: 7%
Glucose, percentage of hydrolyzed pattern [2]: 25%
Triose, percentage of hydrolyzed pattern [2]: 0/0%
Biose (un-hydrolyzed cellobiose), percentage of hydrolyzed pattern [3]: 3%
F-tail, percentage of hydrolyzed pattern [3]: 38%
Glucose, percentage of hydrolyzed pattern [3]: 58%
Triose, percentage of hydrolyzed pattern [3]: 0/0%
Biose (un-hydrolyzed cellobiose), percentage of hydrolyzed pattern [4]: 77%
F-tail, percentage of hydrolyzed pattern [4]: 6%
Glucose, percentage of hydrolyzed pattern [4]: 17%
Triose, percentage of hydrolyzed pattern [4]: 0/0%
Structure (SMILES): O=C(NCCCCCO[C@@H]1O[C@H](CO)[C@@H](O[C@@H]2O[C@H](CO)[C@@H](O)[C@H](O)[C@H]2O)[C@H](O)[C@H]1O)OCCCC(F)(F)C(F)(F)C(F)(F)C(F)(F)C(F)(F)C(F)(F)C(F)(F)C(F)(F)F [Compound 8, [(4,4,5,5,6,6,7,7,8,8,9,9,10,10,11,11,12,12,12-nonadecafluorododecoxycarbonyl-amino)pentyl] ß-D-cellobioside]
